Reference: PMC5966835 (Antiviral research, 2018)
Read-outs that look alike come from different tables or passages of the source.

Tests used:
CHIKV nsP1 [1] = target: T1, CHIKV nsP1 (Chikungunya virus, UniProt Q8JUX6); assay: Fluorescence polarization GTP-competition assay; assay type: binding; conditions: for more active against CHIKV nsP1 than Dengue NS5 (selectivity): Ki CHIKV nsP1 vs DENV NS5
T1 sequence (Q8JUX6 1-535 limits assumed): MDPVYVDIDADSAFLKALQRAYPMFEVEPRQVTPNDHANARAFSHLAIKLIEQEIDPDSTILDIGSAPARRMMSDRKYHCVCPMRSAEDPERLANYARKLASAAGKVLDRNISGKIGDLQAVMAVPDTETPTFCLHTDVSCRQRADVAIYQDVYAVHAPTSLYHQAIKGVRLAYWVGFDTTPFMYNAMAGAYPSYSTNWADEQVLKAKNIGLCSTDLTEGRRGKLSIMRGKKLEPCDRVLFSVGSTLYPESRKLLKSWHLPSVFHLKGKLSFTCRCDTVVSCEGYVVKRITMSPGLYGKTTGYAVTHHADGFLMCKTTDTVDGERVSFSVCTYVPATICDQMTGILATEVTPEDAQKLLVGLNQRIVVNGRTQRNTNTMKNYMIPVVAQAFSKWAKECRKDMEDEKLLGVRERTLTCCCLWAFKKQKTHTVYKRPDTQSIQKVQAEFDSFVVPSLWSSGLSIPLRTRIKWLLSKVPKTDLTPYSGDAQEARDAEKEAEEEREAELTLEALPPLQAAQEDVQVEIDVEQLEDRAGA

DENV NS5 = DENV NS5 (Dengue virus type 2, UniProt P29990); assay: GTP-binding inhibition of flavivirus NS5 capping enzyme
CHIKV nsP1 [2] = target: T1, CHIKV nsP1; assay: Guanylation inhibition; assay type: biochemical; conditions: 200-3.1 µM, 1 hour at 37°C, n=3
CHIKV (strain OPY1) = assay: Live virus testing, CHIKV in BHK cells, plaque assay; assay type: cell-based, Chikungunya virus; conditions: for CHIKV replication in BHK cells: MOI 0.1, 48 hours; for EC50: Chikungunya virus, BHK, read-out: BHK EC50
Sindbis virus = assay: Live virus testing, Sindbis virus in BHK cells, plaque assay; assay type: cell-based, Sindbis virus (TE/3'2J); conditions: for Sindbis virus replication in vitro: BHK cells, MOI 0.1, 48 hours
[3] = cited from earlier work
CHIKV = assay: Live virus testing, CHIKV in Huh 7 cells, plaque assay; assay type: cell-based; conditions: Chikungunya virus, read-out: Huh 7 EC50
Cytotoxicity assay [4] = conditions: human
Cytotoxicity assay [5] = assay: Cytotoxicity assay
[6] = tested on: human adenosine-triphosphategated P2X7 receptor; conditions: ref Fischer et al., 2014; cited from earlier work

Chain of DENV NS5 (P29990 2492-2758 limits assumed): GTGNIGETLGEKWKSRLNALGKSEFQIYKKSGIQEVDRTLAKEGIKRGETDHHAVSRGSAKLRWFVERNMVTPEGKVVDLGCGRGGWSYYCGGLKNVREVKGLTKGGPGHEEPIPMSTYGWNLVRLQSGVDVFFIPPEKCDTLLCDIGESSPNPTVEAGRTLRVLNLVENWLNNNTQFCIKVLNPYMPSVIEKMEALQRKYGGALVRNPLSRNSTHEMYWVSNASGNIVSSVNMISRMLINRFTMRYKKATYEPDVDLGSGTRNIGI

With `CCc1oc2ccccc2c1C(=O)c1cc(Br)c(O)c(Br)c1` [benzbromarone, Benzbromarone, reference compound] the Ki (CHIKV nsP1 [1]) was 13 ± 0.9 µM, the Ki (DENV NS5) was 9 ± 0.7 µM and the “inhibition of CHIKV nsP1 guanylation activity” value (shortened to “inhibition”) (CHIKV nsP1 [2]) was “only showed inhibitory activity at high µM concentrations”.

For `CN1CCCN=C1/C=C/c1cccs1` [pyrantel pamoate, reference compound], the Ki (CHIKV nsP1 [1]) was 5 ± 0.3 µM, the “more active against CHIKV nsP1 than Dengue NS5 (selectivity)” value (CHIKV nsP1 [1]) was about 5 X and the Ki (DENV NS5) was 38 ± 1.5 µM. For the same molecule, the “CHIKV replication in BHK cells” value (CHIKV (strain OPY1)) was “Neither pyrantel pamoate nor garcinolic acid were able to reduce CHIKV replication in BHK cells”, the “inhibition” value (CHIKV nsP1 [2]) was “inhibited CHIKV nsP1 guanlylation activity in a dose dependent manner” and the “Sindbis virus replication in vitro” value (Sindbis virus) was “did not markedly decrease Sindbis virus replication in vitro”. The “absorption in the human intestine” value [3] was “poorly absorbed in the human intestine”.

In the case of `CCCCCc1c2c(cc(O)c1C(=O)O)OC(=O)c1c(cc(OC)cc1C(=O)CCCC)O2` [lobaric acid], the Ki (CHIKV nsP1 [1]) is reported as 7 ± 0.6 µM, the “more active against CHIKV nsP1 than Dengue NS5 (selectivity)” value (CHIKV nsP1 [1]) is reported as about 5 X and the Ki (DENV NS5) is reported as 43.8 ± 7 µM. It also gave an EC50 (CHIKV; Huh-7, 24 h) of 16.3 ± 1.2 µM, an EC50 (CHIKV; Huh-7, 48 h) of 5.3 ± 0.4 µM and an average selectivity index (CHIKV (strain OPY1); BHK and Huh 7 cells, 24 and 48 hours) of about 7. For the same molecule, the “CHIKV replication in BHK cells” value (CHIKV (strain OPY1)) was “inhibited viral replication efficiently after 48 hours”, the EC50 (CHIKV (strain OPY1); 24 h) was 9.9 ± 2.6 µM and the EC50 (CHIKV (strain OPY1); 48 h) was 8.9 ± 1.3 µM. For the same molecule, the “inhibition” value (CHIKV nsP1 [2]) was “inhibited CHIKV nsP1 guanlylation activity in a dose dependent manner”, the CC50 at 24 h (Cytotoxicity assay [4]) was 60.5 ± 3.8 µM and the CC50 at 48 h (Cytotoxicity assay [4]) was 50 ± 1.3 µM. It also gave a CC50 at 24 h (Cytotoxicity assay [5]; hamster) of 76.3 ± 2.1 µM, a CC50 at 48 h (Cytotoxicity assay [5]; hamster) of 53.8 ± 8.1 µM and a CC50 (Cytotoxicity assay [5]; hamster and human) of 50 to 76 µM. It also gave an EC50 (Sindbis virus; Sindbis virus, BHK, 48 h, read-out: EC50 Sindbis virus growth) of 5.9 µM.

In the case of `CC(C)=CCCC1(C)C=Cc2c(O)c3c(c(CC=C(C)C)c2O1)OC12C(=CCCC1C(C)(C)O[C@@]2(C/C=C(\C)C(=O)O)C(=O)O)C3=O` (some centres unmarked) [garcinolic acid], the Ki (CHIKV nsP1 [1]) is reported as 14.5 ± 4.9 µM, the Ki (DENV NS5) is reported as 6.9 ± 0.4 µM and the “CHIKV replication in BHK cells” value (CHIKV (strain OPY1)) is reported as “Neither pyrantel pamoate nor garcinolic acid were able to reduce CHIKV replication in BHK cells”. For the same molecule, the “inhibition” value (CHIKV nsP1 [2]) was “inhibited CHIKV nsP1 guanlylation activity in a dose dependent manner”, the “Sindbis virus replication in vitro” value (Sindbis virus) was “did not markedly decrease Sindbis virus replication in vitro” and the “Ca(2+) uptake of P2X7 receptor” value [6] was “increase Ca(2+) uptake of the human adenosine-triphosphategated P2X7 receptor”.
